Assay [1] has as its target TYK2 (Homo sapiens, UniProt P29597). Description: Biochemical potency on Tyk2, TR-FRET (LANCE Ultra kinase assay). The conditions noted are these: ATP corresponding to Km; cell-free; read-out: TYK2 inhibitory activity (pIC50) (converted). Put shortly: (§1)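 ULight-JAK-1 (Tyr1023) peptide phosphorylation at Km ATP, 1.5 h r.t.; substrate solution held peptide 30/50/20/10 nM and ATP 20/0.7/0.2/12 μM, enzyme solution 0.15/0.083/0.025/0.144 ng/μL (JAK1/JAK2/JAK3/TYK2). EDTA stop, Eu-PT66 antibody TR-FRET read at 665 nm; 11-point 5-fold dilutions from 20 μM; IC50 by variable-slope fit.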
A general note: In TR-FRET formats the signal depends on donor and acceptor labels being close together.

Assay [2] has as its target T1, JAK3 (Homo sapiens, UniProt P52333).
T1 sequence (P52333 1-1124): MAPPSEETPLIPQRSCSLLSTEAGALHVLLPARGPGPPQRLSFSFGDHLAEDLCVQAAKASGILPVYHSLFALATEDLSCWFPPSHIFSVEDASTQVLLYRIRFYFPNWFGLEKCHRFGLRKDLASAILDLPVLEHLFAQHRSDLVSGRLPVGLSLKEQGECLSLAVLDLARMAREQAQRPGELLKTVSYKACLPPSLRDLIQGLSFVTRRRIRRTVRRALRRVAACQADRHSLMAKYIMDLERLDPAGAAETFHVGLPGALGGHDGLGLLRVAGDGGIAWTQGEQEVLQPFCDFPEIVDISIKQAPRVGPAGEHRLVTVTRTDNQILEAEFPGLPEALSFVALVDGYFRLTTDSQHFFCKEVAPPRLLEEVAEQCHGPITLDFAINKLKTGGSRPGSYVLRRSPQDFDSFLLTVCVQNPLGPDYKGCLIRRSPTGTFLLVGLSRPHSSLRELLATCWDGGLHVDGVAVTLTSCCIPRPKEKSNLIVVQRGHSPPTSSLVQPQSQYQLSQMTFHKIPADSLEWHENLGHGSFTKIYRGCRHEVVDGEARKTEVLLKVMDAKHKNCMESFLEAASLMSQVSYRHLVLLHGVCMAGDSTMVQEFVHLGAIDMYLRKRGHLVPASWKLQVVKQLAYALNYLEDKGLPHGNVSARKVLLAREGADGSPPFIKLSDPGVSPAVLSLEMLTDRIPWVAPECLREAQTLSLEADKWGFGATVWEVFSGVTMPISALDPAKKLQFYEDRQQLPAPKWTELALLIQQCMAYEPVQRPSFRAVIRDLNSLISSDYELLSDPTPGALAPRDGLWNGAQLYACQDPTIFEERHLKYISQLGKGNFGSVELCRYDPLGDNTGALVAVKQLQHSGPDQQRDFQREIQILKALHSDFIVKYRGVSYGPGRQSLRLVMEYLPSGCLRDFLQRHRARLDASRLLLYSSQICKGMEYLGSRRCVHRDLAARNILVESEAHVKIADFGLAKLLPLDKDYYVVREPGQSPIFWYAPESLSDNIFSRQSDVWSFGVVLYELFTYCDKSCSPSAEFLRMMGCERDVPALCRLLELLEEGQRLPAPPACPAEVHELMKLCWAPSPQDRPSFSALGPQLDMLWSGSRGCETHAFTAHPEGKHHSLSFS
Description: Biochemical potency on JAK3, TR-FRET (LANCE Ultra kinase assay). The settings on record: ATP corresponding to Km; cell-free; read-out: JAK3 inhibitory activity (pIC50) (converted). The method in brief: as §1

Assay [3] addresses JAK1 (Homo sapiens, UniProt P23458). Description: Biochemical potency on JAK1, TR-FRET (LANCE Ultra kinase assay). The conditions noted are these: ATP corresponding to Km; cell-free; read-out: JAK1 inhibitory activity (pIC50) (converted). Put shortly: as §1
For assay [4], the target named is JAK2 (Homo sapiens, UniProt O60674). Briefly: Biochemical potency on JAK2, TR-FRET (LANCE Ultra kinase assay). The conditions noted are these: ATP corresponding to Km; cell-free; read-out: JAK2 inhibitory activity (pIC50) (converted). The method in brief:
as §1

In assay [5] the test system is pSTAT6 in BEAS-2B human cell line. Briefly: Inhibition of IL-13 induced pSTAT6 in BEAS. The class given is cell-based. The settings on record: for IC50: Homo sapiens, BEAS-2B, 0.5 h, IL-13 trigger, 30 min, parent compound; for Fold difference parent vs predicted acid metabolite: ratio=IC50 predicted acid metabolite/IC50 ester. The method in brief: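 BEAS-2B cells grown 48 h, pre-treated 30 min with compound, then stimulated 30 min with IL-13. Lysate pSTAT6 (Tyr641) measured by sandwich ELISA. Eleven 5-fold dilutions from 10 μM, in duplicate, fitted to IC50.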

The source of these data is patent US20260337208A1, “HETEROCYCLIC DERIVATIVES AS JANUS KINASE INHIBITORS” (CHIESI FARMACEUTICI S.P.A., priority 2022, published 2026).

Sequence of JAK1 (P23458 whole entry): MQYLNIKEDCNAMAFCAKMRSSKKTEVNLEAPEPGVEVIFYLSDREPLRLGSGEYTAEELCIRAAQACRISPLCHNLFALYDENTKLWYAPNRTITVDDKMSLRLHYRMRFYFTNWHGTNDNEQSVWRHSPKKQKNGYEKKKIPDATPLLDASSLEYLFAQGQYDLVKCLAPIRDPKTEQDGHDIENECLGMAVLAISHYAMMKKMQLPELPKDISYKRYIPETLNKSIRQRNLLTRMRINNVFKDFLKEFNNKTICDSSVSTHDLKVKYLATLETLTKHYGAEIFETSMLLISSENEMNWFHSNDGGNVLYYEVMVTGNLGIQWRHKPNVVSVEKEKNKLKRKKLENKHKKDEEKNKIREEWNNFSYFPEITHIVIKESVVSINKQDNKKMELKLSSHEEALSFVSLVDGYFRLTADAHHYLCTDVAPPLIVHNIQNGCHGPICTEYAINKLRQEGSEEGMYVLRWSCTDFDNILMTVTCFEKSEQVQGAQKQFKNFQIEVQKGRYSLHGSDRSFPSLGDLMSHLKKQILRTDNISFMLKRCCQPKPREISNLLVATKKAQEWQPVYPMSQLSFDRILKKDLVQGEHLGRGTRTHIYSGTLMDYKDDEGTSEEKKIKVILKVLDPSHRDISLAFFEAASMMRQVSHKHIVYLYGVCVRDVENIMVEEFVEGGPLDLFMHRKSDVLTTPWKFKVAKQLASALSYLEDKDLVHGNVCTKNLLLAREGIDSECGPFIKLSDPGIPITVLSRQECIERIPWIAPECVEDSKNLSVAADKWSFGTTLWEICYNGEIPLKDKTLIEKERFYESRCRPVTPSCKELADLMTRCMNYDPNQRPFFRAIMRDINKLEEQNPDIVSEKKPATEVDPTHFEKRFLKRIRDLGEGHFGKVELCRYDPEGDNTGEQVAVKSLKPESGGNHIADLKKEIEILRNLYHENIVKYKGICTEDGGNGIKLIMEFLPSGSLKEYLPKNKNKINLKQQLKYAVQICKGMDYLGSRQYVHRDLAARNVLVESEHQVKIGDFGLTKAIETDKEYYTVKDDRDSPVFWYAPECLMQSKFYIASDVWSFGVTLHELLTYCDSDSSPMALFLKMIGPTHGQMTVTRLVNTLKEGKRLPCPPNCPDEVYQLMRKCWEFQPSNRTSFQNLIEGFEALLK
Sequence of JAK2 (O60674 whole entry): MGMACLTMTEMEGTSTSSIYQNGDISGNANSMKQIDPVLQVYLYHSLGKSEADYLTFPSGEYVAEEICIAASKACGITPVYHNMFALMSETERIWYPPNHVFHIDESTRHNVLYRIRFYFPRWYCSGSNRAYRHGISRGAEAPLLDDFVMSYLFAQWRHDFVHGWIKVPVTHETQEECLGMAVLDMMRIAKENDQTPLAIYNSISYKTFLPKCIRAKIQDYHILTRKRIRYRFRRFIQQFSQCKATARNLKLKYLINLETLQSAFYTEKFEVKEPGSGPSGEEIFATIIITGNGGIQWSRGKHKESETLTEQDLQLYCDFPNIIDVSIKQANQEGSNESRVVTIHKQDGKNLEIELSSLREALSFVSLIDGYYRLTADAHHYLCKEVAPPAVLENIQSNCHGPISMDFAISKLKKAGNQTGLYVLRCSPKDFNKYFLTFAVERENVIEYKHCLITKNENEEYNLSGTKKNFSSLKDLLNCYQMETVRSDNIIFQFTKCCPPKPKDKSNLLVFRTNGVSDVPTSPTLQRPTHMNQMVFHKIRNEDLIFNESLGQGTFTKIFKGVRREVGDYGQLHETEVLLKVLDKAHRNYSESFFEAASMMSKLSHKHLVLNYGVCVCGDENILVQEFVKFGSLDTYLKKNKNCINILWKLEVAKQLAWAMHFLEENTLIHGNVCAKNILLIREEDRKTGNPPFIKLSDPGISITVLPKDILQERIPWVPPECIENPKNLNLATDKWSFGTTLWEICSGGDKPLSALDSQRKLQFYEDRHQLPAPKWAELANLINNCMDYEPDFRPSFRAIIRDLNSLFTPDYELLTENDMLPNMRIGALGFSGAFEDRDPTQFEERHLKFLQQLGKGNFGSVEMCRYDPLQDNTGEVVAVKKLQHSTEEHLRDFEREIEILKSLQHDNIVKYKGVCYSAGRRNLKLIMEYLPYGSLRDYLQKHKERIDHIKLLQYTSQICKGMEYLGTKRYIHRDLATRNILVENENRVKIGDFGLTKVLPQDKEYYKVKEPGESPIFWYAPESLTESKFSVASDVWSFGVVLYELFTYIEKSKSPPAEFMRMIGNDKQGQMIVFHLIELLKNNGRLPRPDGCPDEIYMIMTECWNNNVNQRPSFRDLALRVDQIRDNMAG
Sequence of TYK2 (P29597 whole entry): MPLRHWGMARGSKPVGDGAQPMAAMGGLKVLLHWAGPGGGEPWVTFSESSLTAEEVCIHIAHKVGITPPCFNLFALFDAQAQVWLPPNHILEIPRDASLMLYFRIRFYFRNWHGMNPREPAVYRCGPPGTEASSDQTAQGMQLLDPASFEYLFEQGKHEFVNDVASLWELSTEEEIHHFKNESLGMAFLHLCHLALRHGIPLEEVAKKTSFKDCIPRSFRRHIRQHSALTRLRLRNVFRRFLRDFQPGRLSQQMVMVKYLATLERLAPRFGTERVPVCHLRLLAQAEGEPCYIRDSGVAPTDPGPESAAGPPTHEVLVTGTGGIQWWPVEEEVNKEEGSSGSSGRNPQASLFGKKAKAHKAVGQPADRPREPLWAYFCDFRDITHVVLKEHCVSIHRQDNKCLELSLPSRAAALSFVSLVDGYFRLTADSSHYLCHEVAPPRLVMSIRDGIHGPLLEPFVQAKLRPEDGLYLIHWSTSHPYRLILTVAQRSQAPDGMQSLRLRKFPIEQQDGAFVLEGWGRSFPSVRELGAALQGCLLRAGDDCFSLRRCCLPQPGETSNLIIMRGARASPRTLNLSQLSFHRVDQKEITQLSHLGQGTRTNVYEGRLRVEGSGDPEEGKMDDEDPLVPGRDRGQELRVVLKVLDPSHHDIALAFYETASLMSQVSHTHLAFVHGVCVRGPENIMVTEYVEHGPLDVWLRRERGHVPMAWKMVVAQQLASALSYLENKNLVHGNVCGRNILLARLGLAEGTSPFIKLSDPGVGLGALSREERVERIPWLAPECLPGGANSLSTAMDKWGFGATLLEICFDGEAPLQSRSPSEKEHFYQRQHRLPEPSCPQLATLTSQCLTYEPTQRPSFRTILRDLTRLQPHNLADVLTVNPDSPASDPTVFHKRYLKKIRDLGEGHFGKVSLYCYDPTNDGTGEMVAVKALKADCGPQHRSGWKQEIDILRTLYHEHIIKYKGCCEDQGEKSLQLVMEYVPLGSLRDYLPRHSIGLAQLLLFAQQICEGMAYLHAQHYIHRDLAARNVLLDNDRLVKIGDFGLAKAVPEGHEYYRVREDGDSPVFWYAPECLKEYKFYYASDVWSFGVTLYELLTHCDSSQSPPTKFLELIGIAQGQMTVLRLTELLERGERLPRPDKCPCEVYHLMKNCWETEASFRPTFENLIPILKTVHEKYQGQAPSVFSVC

In the case of `COc1cc2c(cc1-n1nc(C(=O)NCCN3CC[C@@H](C(=O)OCC(C)(C)C#N)C3)c3cnc(-c4cnn5cccnc45)cc31)OCCN2` [Example 49, 2-cyano-2-methylpropyl (R)-1-(2-(1-(6-methoxy-3,4-dihydro-2H-benzo[b][1,4]oxazin-7-yl)-6-(pyrazolo[1,5-a]pyrimidin-3-yl)-1H-pyrazolo[4,3-c]pyridine-3-carboxamido)ethyl)pyrrolidine-3-carboxylate], the IC50 in assay [1] is 5.01 to 50.1 nM; in assay [2] it was at most 5.01 nM; in assay [3], at most 5.01 nM; in assay [4] it was at most 5.01 nM; in assay [5], at most 5.01 nM. Also, the “Fold difference parent vs predicted acid metabolite” value in assay [5] is “kkk (200>ratio≥100)”.
Regarding `COc1cc2c(cc1-n1nc(C(=O)NCCN3CCC(C(=O)O[C@H]4CN(C)C[C@@H]4F)CC3)c3cnc(-c4cnn5cccnc45)cc31)OCCN2` [Example 50, (3S,4S)-4-fluoro-1-methylpyrrolidin-3-yl 1-(2-(1-(6-methoxy-3,4-dihydro-2H-benzo[b][1,4]oxazin-7-yl)-6-(pyrazolo[1,5-a]pyrimidin-3-yl)-1H-pyrazolo[4,3-c]pyridine-3-carboxamido)ethyl)piperidine-4-carboxylate], the IC50 in assay [1] was 5.01 to 50.1 nM; in assay [2], at most 5.01 nM; in assay [3], at most 5.01 nM; in assay [4], at most 5.01 nM; in assay [5], at most 5.01 nM. The “Fold difference parent vs predicted acid metabolite” value in assay [5] is reported as “kkkk (ratio≥200)”.
For `COc1cc2c(cc1-n1nc(C(=O)NCCN3CCC(CC(=O)O[C@@H]4CCN(CCF)C4)CC3)c3cnc(-c4cnn5cccnc45)cc31)OCCN2` [Example 52, (R)-1-(2-fluoroethyl)pyrrolidin-3-yl 2-(1-(2-(1-(6-methoxy-3,4-dihydro-2H-benzo[b][1,4]oxazin-7-yl)-6-(pyrazolo[1,5-a]pyrimidin-3-yl)-1H-pyrazolo[4,3-c]pyridine-3-carboxamido)ethyl)piperidin-4-yl)acetate], the IC50 in assay [1] was 5.01 to 50.1 nM; in assay [2], at most 5.01 nM; in assay [3] it was at most 5.01 nM; in assay [4], at most 5.01 nM; in assay [5] it was 5.01 to 50.1 nM. Also, in assay [5], the “Fold difference parent vs predicted acid metabolite” value is reported as “kkk (200>ratio≥100)”.
On to `COc1cc2c(cc1-n1nc(C(=O)NCCN3CCC(C(=O)OCC4(C#N)CC4)CC3)c3cnc(-c4cnn5cccnc45)cc31)OCCN2` [Example 53, (1-cyanocyclopropyl)methyl 1-(2-(1-(6-methoxy-3,4-dihydro-2H-benzo[b][1,4]oxazin-7-yl)-6-(pyrazolo[1,5-a]pyrimidin-3-yl)-1H-pyrazolo[4,3-c]pyridine-3-carboxamido)ethyl)piperidine-4-carboxylate], for which the IC50 in assay [1] is 5.01 to 50.1 nM; in assay [2], at most 5.01 nM; in assay [3], at most 5.01 nM; in assay [4] it was at most 5.01 nM; in assay [5], at most 5.01 nM. The “Fold difference parent vs predicted acid metabolite” value in assay [5] is on record as “kkkk (ratio≥200)”.
Consider `COc1cc2c(cc1-n1nc(C(=O)NCCN3CCC(C(=O)OCCCC#N)CC3)c3cnc(-c4cnn5cccnc45)cc31)OCCN2` [Example 54, 3-cyanopropyl 1-(2-(1-(6-methoxy-3,4-dihydro-2H-benzo[b][1,4]oxazin-7-yl)-6-(pyrazolo[1,5-a]pyrimidin-3-yl)-1H-pyrazolo[4,3-c]pyridine-3-carboxamido)ethyl)piperidine-4-carboxylate], for which the IC50 was 5.01 to 50.1 nM in assay [1]; at most 5.01 nM in assay [2]; at most 5.01 nM in assay [3]; at most 5.01 nM in assay [4]; at most 5.01 nM in assay [5]. Also, the “Fold difference parent vs predicted acid metabolite” value in assay [5] is “kkkk (ratio≥200)”.
In the case of `COc1cc2c(cc1-n1nc(C(=O)NCCN3CC[C@@H](C(=O)O[C@@H]4CCN(CCF)C4)C3)c3cnc(-c4cnn5cccnc45)cc31)OCCN2` [Example 55, (R)-1-(2-fluoroethyl)pyrrolidin-3-yl (R)-1-(2-(1-(6-methoxy-3,4-dihydro-2H-benzo[b][1,4]oxazin-7-yl)-6-(pyrazolo[1,5-a]pyrimidin-3-yl)-1H-pyrazolo[4,3-c]pyridine-3-carboxamido)ethyl)pyrrolidine-3-carboxylate], the IC50 in assay [1] is 5.01 to 50.1 nM; in assay [2], at most 5.01 nM; in assay [3], at most 5.01 nM; in assay [4], at most 5.01 nM; in assay [5], 5.01 to 50.1 nM. In assay [5], the “Fold difference parent vs predicted acid metabolite” value was “kk (100>ratio≥10)”.
On to `COc1cc2c(cc1-n1nc(C(=O)NCCN3CC[C@H](C(=O)O[C@@H]4CCN(C)C4)C3)c3cnc(-c4cnn5cccnc45)cc31)OCCN2` [Example 56, (R)-1-methylpyrrolidin-3-yl (S)-1-(2-(1-(6-methoxy-3,4-dihydro-2H-benzo[b][1,4]oxazin-7-yl)-6-(pyrazolo[1,5-a]pyrimidin-3-yl)-1H-pyrazolo[4,3-c]pyridine-3-carboxamido)ethyl)pyrrolidine-3-carboxylate], for which the IC50 in assay [1] was 5.01 to 50.1 nM; in assay [2], at most 5.01 nM; in assay [3] it was at most 5.01 nM; in assay [4] it was at most 5.01 nM; in assay [5], 5.01 to 50.1 nM. Besides, the “Fold difference parent vs predicted acid metabolite” value in assay [5] was “kk (100>ratio≥10)”.
Regarding `COc1cc2c(cc1-n1nc(C(=O)NCCN3CCC(C(=O)OC4CN(C(C)C)C4)CC3)c3cnc(-c4cnn5cccnc45)cc31)OCCN2` [Example 57, 1-isopropylazetidin-3-yl 1-(2-(1-(6-methoxy-3,4-dihydro-2H-benzo[b][1,4]oxazin-7-yl)-6-(pyrazolo[1,5-a]pyrimidin-3-yl)-1H-pyrazolo[4,3-c]pyridine-3-carboxamido)ethyl)piperidine-4-carboxylate], the IC50 in assay [1] was 5.01 to 50.1 nM; in assay [2], at most 5.01 nM; in assay [3], at most 5.01 nM; in assay [4], at most 5.01 nM; in assay [5], 5.01 to 50.1 nM. For the same molecule, the “Fold difference parent vs predicted acid metabolite” value in assay [5] was “kkk (200>ratio≥100)”.
For `CCOC(=O)C1CCN(CCNC(=O)c2nn(-c3cc4c(cc3OC)NCCO4)c3cc(Nc4ncc[nH]c4=O)ncc23)CC1` [Example 58, ethyl 1-(2-(1-(6-methoxy-3,4-dihydro-2H-benzo[b][1,4]oxazin-7-yl)-6-((3-oxo-3,4-dihydropyrazin-2-yl)amino)-1H-pyrazolo[4,3-c]pyridine-3-carboxamido)ethyl)piperidine-4-carboxylate], the IC50 in assay [1] is 5.01 to 50.1 nM; in assay [2], at most 5.01 nM; in assay [3], at most 5.01 nM; in assay [4], at most 5.01 nM; in assay [5] it was 5.01 to 50.1 nM. In addition, in assay [5], the “Fold difference parent vs predicted acid metabolite” value is listed as “kkkk (ratio≥200)”.
Turning to `CCSC(=O)C1CCN(CCNC(=O)c2nn(-c3cc4c(cc3OC)NCCO4)c3cc(-c4cnn5cccnc45)ncc23)CC1` [Example 59, S-ethyl 1-(2-(1-(6-methoxy-3,4-dihydro-2H-benzo[b][1,4]oxazin-7-yl)-6-(pyrazolo[1,5-a]pyrimidin-3-yl)-1H-pyrazolo[4,3-c]pyridine-3-carboxamido)ethyl)piperidine-4-carbothioate], the IC50 in assay [1] is 5.01 to 50.1 nM; in assay [2], at most 5.01 nM; in assay [3] it was at most 5.01 nM; in assay [4], at most 5.01 nM; in assay [5] it was at most 5.01 nM. Besides, in assay [5], the “Fold difference parent vs predicted acid metabolite” value is on record as “kkkk (ratio≥200)”.
